Legend:
[1] = cited from earlier work
[2] = Oral dissolve acceptability / ALA burn of ALA lozenges and tablets in users; conditions: salt added to, or salt form used in, oral dissolve ALA formulation
Experimental: These tablets are circular, 9 mm in diameter, approximately 5 mm thick, having a weight of approximately 0.35 g and dissolution times of about 3.5 minutes.
Such NaCl-tablet and Non-Salt-tablet formulations being referred to as “NaCl-formulations” and “Non-Salt-formulation” respectively.
One way to specify or measure the difference resulting from the addition of any organic or inorganic salt (such as NaCl) to a formulation, is to measure the degree to which the Salt-formulation has less of an ALA burn than the Non-Salt-formulation when dissolved in the mouth.

[3] = antacid taken with ALA taken orally (ingested); found by some individuals
Excerpt: Some of the ALA in the saliva is swallowed during oral dissolve administration, therefore the esophagus and stomach encounter some ALA and may be irritated by it, particularly in humans and non-human species with sensitive stomachs.

In the case of O=C(O)CCCCC1CCSS1 (stereo not drawn) [ALA, Alpha-lipoic acid], the pKa [1] is given as 4.7.
For [Cl-].[Na+] [NaCl, sodium chloride], the “reduction of ALA burn (burning sensation in the mouth)” value [2] was “reduces the ALA burn during oral dissolution”.
With O=C([O-])CCCC[C@@H]1CCSS1.[Na+] [Na—R-ALA] the “reduction of ALA burn (burning sensation in the mouth)” value [2] was “further reduction of the ALA burning and/or rawness problems”.
With O=C([O-])[O-].[Ca+2] [calcium carbonate] the stomach irritation [3] was “reduces this stomach irritation”.

Source: patent publication US12702656B2, “ALA and salt formulation” (Molecular Product Management LLC, priority 2016, dated 2026)
